Assay results: US20080102039A1, “Betamethasone spray” (priority 2006, published 2008)

Experiments:
[1] = Preparation of Formulation 1: dissolution of BMV in dimethyl isosorbide and visual check for precipitation; assay type: physicochemical; settings: Formulation 1 preparation
Experimental: • 1) Into vessel 1 was added the dimethyl isosorbide to which was slowly sprinkled the BMV. This was left mixing until visually dissolved. • 2) To vessel 1 was added the propylene glycol with stirring until homogenous. • 3) In vessel 2 was added the required amount of water and polysorbate 80. This was stirred until dissolved and homogenous. • 4) The 3Na.citrate.2H2O, anhyd. citric acid, imidazolidinyl urea and SDS were then added to vessel 2 and stirred until completely dissolved. • 5) The contents of vessel 2 were then poured into vessel 1 and stirred until homogenous.
A 1.1 kg batch of the 0.12% w/w Betamethasone valerate foam formulation above was then made up for a 3-month accelerated stability study using the same method: (Table 2)

[2] = Microscope examination of drops for crystals (Leica DM LB, drop taken every 5 mins); assay type: physicochemical
Experimental: The DMI phase was made up for a total solution volume of 500 g so 0.600 g (actual weight) of betamethasone valerate was dissolved in 25.009 g of Arlasolve DMI. The rate of addition was 0.600 g added over 30 secs that is at a rate of 0.02 g/sec. The solution was then mixed at speed setting 1 on the Bibby magnetic stirrer. 1 drop of the solution was then taken every 5 mins. and examined under the Leica DM LB microscope with a 5× lens and L plan 10× eyepiece. A 100×1 mm^2 graticule was placed over the sample. The temperatures before and after addition of DMI were also recorded.
Whilst stirring the BMV/DMI solution at speed 1 on the Bibby magnetic stirrer, the propylene glycol (50.008 g) was poured in over approx. 12 secs, at a rate of 4.17 g/sec. 1 drop of the solution was then taken every 5 mins. and examined under a Leica DM LB microscope with a 5× lens and L plan 10× eyepiece. […] The temperatures before and after addition of propylene glycol were also recorded.
15.120 g of the active phase was added to 84.880 g of the aqueous phase over 10 secs (Total vol.=100.000 g), at a rate of 1.51 g/sec. […] The temperatures before and after addition of the active phase were also recorded. […]
84.882 g of the aqueous phase were added to 15.129 g of the active phase over 10 secs (Total vol.=100.011 g). […] The temperatures before and after addition of the aqueous phase were also recorded. […]

[3] = cited from earlier work

CCCCC(=O)O[C@]1(C(=O)CO)[C@@H](C)C[C@H]2[C@@H]3CCC4=CC(=O)C=C[C@]4(C)[C@@]3(F)[C@@H](O)C[C@@]21C [Betamethasone valerate]
dissolution of BMV into dimethyl isosorbide [1]: successfully dissolved
time to fully dissolve into the dimethyl isosorbide ([2]; 0.600 g in 25.009 g Arlasolve DMI, stirrer speed 1): at least 30 minutes
effect of addition of propylene glycol on precipitating the betamethasone valerate ([2]; propylene glycol 50.008 g poured into BMV/DMI solution): no effect
solubility in water [3]: practically insoluble
